Data as given in article PMC5560554, “Targeting of CDK9 with indirubin 3’-monoxime safely and durably reduces HIV viremia in chronically infected humanized mice” (PLoS ONE, 2017).
Values joined by “and” are separate entries in the source; they are usually repeats but may differ in a detail not shown here. Equal entries are not always repeated.

Assays:
[1] = tested on: HIV; set-up: method as in PMID 16284457; conditions: lymphocytes; read-out: EC50 for inhibition of HIV in vitro; cited from earlier work
[2] = tested on: primary lymphocytes; conditions: cited from earlier work
[3] = tested on: HIV BaL; experiment: Antiviral activity of IM during chronic HIV infection in HSC-NSG mice; format: in vivo
Description: NSG mice were humanized at the age of 2–3 days, following whole body irradiation ([…]) and hepatic injection of 1.2x10^5 human cord blood-derived CD34+ cells (Lonza, Walkersville, MD). At week 12, mice were checked for human cell reconstitution by double staining with FITC-conjugated antihuman CD45 antibody (BD Pharmingen) and APC-conjugated antimouse CD45 antibody (BD Pharmingen). Mice were considered successfully transplanted if they had ≥ 5% of human CD45+ cells in peripheral blood. Successfully transplanted mice were infected, via i.p. injection, with 15,000 TCID50 units of the CCR5-tropic HIV reference strain BaL.
Plasma HIV RNA levels were quantified by an in-house real-time RT PCR using HIV Gag primers SK38/SK39 and SYBR green dyes, as in our previous studies. The assay has a sensitivity of 150 copies HIV RNA/40μL plasma. Percentages of human CD4+ and CD8+ T cells were determined by flow cytometry analysis using fluorochrome labeled antibodies against human CD4 (clone SK3), CD8 (SK1), CD3 (clone SK7), and CD45 (clone 2D1) (BD Biosciences). Data were acquired in a BD FACSCalibur flow cytometer and analyzed using FLowJo software (v. 9.7.7). CD4/CD8 ratios were calculated and plotted using GraphPad Prism 5.0 software.
We next evaluated the antiviral activity of IM in HSC-NSG mice chronically infected with HIV. For this, 12-week old HSC-NSG mice were infected with HIV BaL. Five weeks after infection, animals initiated daily i.p. treatment with IM (5 and 20 mg/kg/day) or vehicle control for 15 weeks. Each experimental and control group had 5 mice. Viral replication was monitored by measuring HIV RNA in plasma by RT-PCR. Blood CD4/CD8 ratios were measured by Flow Cytometry. Mice treated with 5 mg/kg dose had modest, but significant, declines in plasma HIV RNA during the 15-week treatment period (Fig 2a). By the end of the study, plasma HIV RNA levels were 2.1 log10 units lower in mice treated with 5 mg/kg IM compared to controls. The CD4/CD8 ratios increased to similar levels in IM (5 mg/kg) and control groups for most of the study duration.
Fig 2 IM reduces HIV viremia in HSC-NSG chronically infected with HIV. Twelve-week old HSC-NSG mice were infected with HIV BaL. Five weeks after infection, treatment was initiated at IM doses of 0 (vehicle alone) and 5 mg/kg/day. Each group had 5 mice. Treatment was continued for 15 weeks. Blood samples collected at the indicated time points were evaluated for plasma HIV RNA levels by quantitative RT-PCR (A), and for CD4/CD8 ratios by Flow Cytometry Analysis (B). At each time point, data were tested for statistical significant differences by Mann-Whitney U tests (GraphPad Prism Software, La Jolla, CA); P < 0.05 was considered significant. Shaded boxes indicate duration of treatment.

[4] = Pharmacokinetics of IM in NSG mice (single i.p. injection, plasma by HPLC); format: in vivo; conditions: for Conc (plasma IM), individual mice: 40 mg/kg
Description: Fasting, female NSG mice (n = 16) were injected with 40 mg/kg IM via i.p. Blood samples were obtained pre-dose (30 minutes before compound injection) and at 5, 15, 30, 60, 120, 180, 240 and 300 minutes after injection using a sparse sampling design (n = 2 samples per mouse, n = 4 samples per time point). Separated plasma was further extracted and processed for analysis, and IM concentrations determined using HPLC analysis. In brief, sample processing involved extraction of plasma (30 μL) with 400 μL acetonitrile and 2 μg/mL internal standard ([…]). The sample was briefly vortexed and centrifuged (12 minutes, 6°C), with transfer of 400 μL of supernatant to a clean test tube. The sample was evaporated to dryness under nitrogen, reconstituted in 50 μL of methanol:water (75:25), and 20 μL was injected onto the column. The concentration of primary analyte (IM) and internal standard (IS) d4-estrone were determined using a Shimadzu Nexera X2 liquid chromatography system coupled with a SPD-M30A UV-VIS diode array detector. The liquid chromatography separation was performed on a Prodigy ODS-3V C18 column, 250 × 4.6 mm, 5 μm. The mobile phase consisted of 35% water and 65% Methanol (Optima LC-MS grade) delivered at a flow rate of 0.85 mL/min. Retention times for IM and IS were 13 and 15 minutes, respectively, with detection at 280 nm. The IM peak identity was confirmed using the complete 240–600 nm absorbance spectra. The standard concentration curve was linear over the range of 0.025 μg/mL– 4.0 μg/mL using regression plots of IM to internal standard peak area ratios versus drug concentrations derived with 1/x2 weighting. […] Non-compartmental pharmacokinetic parameters were determined from pooled average data at each time point using Phoenix WinNonlin v6.4 (Certara, St. Louis, MO).
We evaluated the pharmacokinetics of IM in NSG mice following a single i.p. injection of 40 mg/kg, a dose that inhibited plasma HIV RNA levels by 2 log 10 units in our previous study. Data (S1 Table) were plotted on concentration-time curves and pharmacokinetic parameter values determined (Fig 1). […] Thus, IM concentrations above HIV EC50 values are rapidly achieved and maintained for > 3 h following i.p. injection of 40 mg/kg IM.
Fig 1 Pharmacokinetics of IM in mice. NSG mice (n = 16) were i.p. injected with 40 mg/kg IM. Blood samples were obtained pre-dose and at 5, 15, 30, 60, 120, 180, 240 and 300 minutes after injection using a sparse sampling design (n = 2 samples per mouse, n = 4 samples per time point). Separated plasma was further extracted and processed for analysis, and IM concentrations were determined using HPLC analysis.

[5] = HIV BaL, 20 mg/kg/day i.p., 5 weeks, limited data (S1 Fig)

## O=C1Nc2ccccc2/C1=C1/Nc2ccccc2/C1=N\O [IM, Indirubin 3’-monoxime]
[1]
  EC50: 1000 nM
[2]
  cytotoxicity: not cytotoxic
[3]; 20 mg/kg/day i.p., euthanized after 5 weeks of treatment
  human T cells in blood: progressive losses in human T cells in blood
[3]; HIV BaL chronic infection, 5 mg/kg/day i.p. for 15 weeks
  CD4/CD8 ratios by the end of the study vs control: significantly higher
[3]; HIV BaL chronic infection, 5 mg/kg/day i.p. for 15 weeks, 5 mg/kg/day
  plasma HIV RNA levels lower compared to controls by the end of the study: 2.1 log10 units and ~ 2 log10 units
[3]; [5]
  increases in CD4/CD8 ratios: no consistent inhibition of plasma HIV RNA or increases in CD4/CD8 ratios
  inhibition of plasma HIV RNA: no consistent inhibition of plasma HIV RNA
[4]; 5 min after i.p. 40 mg/kg
  Conc (plasma IM), individual mice: 1056 ng/mL and 1492 ng/mL and 1336 ng/mL and 54 ng/mL
[4]; 15 min after i.p. 40 mg/kg
  Conc (plasma IM), individual mice: 3005 ng/mL and 2975 ng/mL and 3996 ng/mL and 2773 ng/mL
[4]; 30 min after i.p. 40 mg/kg
  Conc (plasma IM), individual mice: 4918 ng/mL and 2550 ng/mL and 29 ng/mL and 3217 ng/mL
[4]; 60 min after i.p. 40 mg/kg
  Conc (plasma IM), individual mice: 2983 ng/mL and 2619 ng/mL and 2828 ng/mL and 2005 ng/mL
[4]; 120 min after i.p. 40 mg/kg
  Conc (plasma IM), individual mice: 4276 ng/mL and 1171 ng/mL and 1632 ng/mL and 14 ng/mL
[4]; 180 min after i.p. 40 mg/kg
  Conc (plasma IM), individual mice: 380 ng/mL and 1062 ng/mL and 56 ng/mL and 217 ng/mL
[4]; 240 min after i.p. 40 mg/kg
  Conc (plasma IM), individual mice: 285 ng/mL and 58 ng/mL and 14 ng/mL and 376 ng/mL
[4]; 300 min after i.p. 40 mg/kg
  Conc (plasma IM), individual mice: 44 ng/mL and 79 ng/mL and 83 ng/mL and 35 ng/mL
[4]; single i.p. 40 mg/kg, plasma
  AUC: 370 ± 64 µg·min/mL
  elimination t1/2: 42.4 min
  maximum concentration of IM in plasma (Cmax): 3190 ± 270 ng/mL
[4]; single i.p. 40 mg/kg, plasma, converted from μg/mL
  Cmax: 11.5 ± 0.97 µM
